Tests used:
[1] = tested on: pro-inflammatory cytokines (IL-1, IL-6, IL-8, TNF-alpha, INF-gamma); experiment: CBA flux cytometry dosage of cytokine secretion in culture supernatants of UV-irradiated reconstructed skin; assay type: cell-based, human; settings: for efficiency on cell viability and synthesis of pro-inflammatory interleukins after solar UV stress: both parameters (cell mortality, pro-inflammatory molecules), UV-irradiated reconstructed skin; for TNFβ / IL1β / IL8 / IL6: reconstructed skin UV irradiated + formulation with 3% active, 10 days; for TNFβ: control 53, UV irradiated 152; for IL1β: control 76, UV irradiated 179; for IL8: control 275, UV irradiated 395; for IL6: control 379, UV irradiated 649
From the text: The model was made according to the following protocol: • The reconstructed dermis model containing DCCs, macrophages and endothelial cells was made according to Example 12. • The reconstructed skin model containing LCs was made according to Example 14.

[2] = tested on: keratinocytes and LCs or fibroblasts and DDC in co-culture; experiment: Cytokine secretion in monolayer pluricellular co-culture models under the effect of an active ingredient; assay type: cell-based, human; settings: retinol 0.05% final concentration in culture medium for 3 days
From the text: (§1) 1 to 2.10^6 human keratinocytes and 1 to 2.10^6 human monocytes (obtained according to Example 1 or 2) are jointly grown in a nutritious medium, for example of the K-SFM type, in culture dishes, for example of the 6-well plate type. The joint culture is maintained for 6 days in a nutritious medium, for example of the K-SFM type, without adding any exogenous cytokine.
as §1, with “fibroblasts” for “keratinocytes”, “FBM” for “K-SFM”, “dishes” for “dishes,”
In order to assess the irritating, sensitizing, allergizing potency, and to estimate a possible pro- or anti-inflammatory activity of an active ingredient intended for human skin, we quantify in the culture supernatants, secretion of cytokines, for example, IL-1, IL-6, IL-8, IL-10, TNF-[…] INF[…], according to the following protocol: • The model is made according to the protocol described in Example 3 or 4. • Retinol is then added into the culture medium at a final concentration of 0.05% for 3 days. • The culture supernatants are then recovered and analyzed.

Row | Compound | efficiency on cell viability and synthesis of pro-inflammatory interleukins after solar UV stress [1] | TNFβ [1] | IL1β [1] | IL8 [1] | IL6 [1] | secretion of pro-inflammatory cytokines [2]
1 | Quercitine Caprylate [Flavenger] | demonstrated efficiency with a possible tendency to restore the reference level | 89 pg/mL | 97 pg/mL | 294 pg/mL | 426 pg/mL | –
2 | CC1=C(/C=C/C(C)=C/C=C/C(C)=C/CO)C(C)(C)CCC1 [retinol, Retinol] | – | – | – | – | – | stimulation of secretion of pro-inflammatory cytokines
3 | Hesperitine Laurate [Flavagrum] | demonstrated efficiency with a possible tendency to restore the reference level | 105 pg/mL | 125 pg/mL | 312 pg/mL | 452 pg/mL | –
